Common to all, as to assay: radiometric filter-binding kinase assay, Kinase HotSpot
What all share (conditions): compound 0.5 µM; ATP 10 µM

The test system of assay [1] is FLT4 (human), P35916 [Q890H].
Assay [2] has as its system MAP2K6 (human), P52564 [S207E/T211E].
In assay [3] the test system is MKNK1 (human), Q9BUB5 [T385D; 165-205 del].
Assay [4] deals with PRKCQ (human), Q04759 [P330L].

The term residual activity denotes the signal under treatment as a percentage of the control signal.

Structures are written as SMILES.

Chain of MAP2K6 (human), P52564 [S207E/T211E] (P52564 whole entry S207E/T211E, looked up): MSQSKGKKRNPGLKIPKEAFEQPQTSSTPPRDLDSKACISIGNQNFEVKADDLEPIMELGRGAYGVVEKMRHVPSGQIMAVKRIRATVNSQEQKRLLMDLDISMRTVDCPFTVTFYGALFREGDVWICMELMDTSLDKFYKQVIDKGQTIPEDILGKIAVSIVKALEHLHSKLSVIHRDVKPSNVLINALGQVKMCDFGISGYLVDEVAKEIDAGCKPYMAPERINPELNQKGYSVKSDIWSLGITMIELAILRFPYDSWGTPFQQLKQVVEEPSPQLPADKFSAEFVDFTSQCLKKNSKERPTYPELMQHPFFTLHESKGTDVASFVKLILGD
Chain of FLT4 (human), P35916 [Q890H] (P35916 whole entry, looked up, stated change not applied): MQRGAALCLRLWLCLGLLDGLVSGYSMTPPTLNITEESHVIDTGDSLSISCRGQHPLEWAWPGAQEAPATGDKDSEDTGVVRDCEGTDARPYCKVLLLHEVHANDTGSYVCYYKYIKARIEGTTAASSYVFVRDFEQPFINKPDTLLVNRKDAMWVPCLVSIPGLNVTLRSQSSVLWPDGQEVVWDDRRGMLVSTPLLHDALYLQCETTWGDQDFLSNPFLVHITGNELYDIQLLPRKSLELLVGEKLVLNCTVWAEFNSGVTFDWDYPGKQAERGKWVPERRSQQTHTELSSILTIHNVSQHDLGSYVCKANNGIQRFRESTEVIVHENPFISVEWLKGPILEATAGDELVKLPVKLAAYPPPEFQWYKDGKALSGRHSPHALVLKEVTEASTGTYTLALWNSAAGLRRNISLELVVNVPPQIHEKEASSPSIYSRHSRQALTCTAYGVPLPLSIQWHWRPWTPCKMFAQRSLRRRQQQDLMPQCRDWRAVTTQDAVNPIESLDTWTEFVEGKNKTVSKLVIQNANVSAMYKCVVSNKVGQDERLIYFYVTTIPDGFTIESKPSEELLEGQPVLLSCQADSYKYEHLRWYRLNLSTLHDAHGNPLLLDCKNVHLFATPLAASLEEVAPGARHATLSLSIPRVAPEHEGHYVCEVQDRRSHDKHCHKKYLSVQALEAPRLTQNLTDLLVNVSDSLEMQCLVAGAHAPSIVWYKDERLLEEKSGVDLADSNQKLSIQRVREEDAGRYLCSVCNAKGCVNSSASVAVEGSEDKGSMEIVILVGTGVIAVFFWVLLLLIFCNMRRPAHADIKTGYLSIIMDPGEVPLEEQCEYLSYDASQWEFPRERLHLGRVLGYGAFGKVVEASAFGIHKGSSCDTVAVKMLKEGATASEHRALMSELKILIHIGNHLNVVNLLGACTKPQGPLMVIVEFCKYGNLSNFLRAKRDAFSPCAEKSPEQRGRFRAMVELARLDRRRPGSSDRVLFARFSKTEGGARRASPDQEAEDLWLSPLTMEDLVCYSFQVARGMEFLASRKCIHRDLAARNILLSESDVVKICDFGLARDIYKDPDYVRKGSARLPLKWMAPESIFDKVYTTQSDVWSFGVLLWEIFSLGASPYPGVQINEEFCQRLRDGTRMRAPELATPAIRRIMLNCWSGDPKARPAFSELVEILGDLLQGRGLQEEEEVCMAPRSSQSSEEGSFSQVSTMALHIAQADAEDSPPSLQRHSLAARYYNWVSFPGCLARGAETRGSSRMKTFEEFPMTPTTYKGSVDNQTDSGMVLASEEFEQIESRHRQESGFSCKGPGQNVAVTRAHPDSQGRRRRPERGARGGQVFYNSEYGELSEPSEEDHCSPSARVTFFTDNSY
Chain of PRKCQ (human), Q04759 [P330L] (Q04759 whole entry P330L, looked up): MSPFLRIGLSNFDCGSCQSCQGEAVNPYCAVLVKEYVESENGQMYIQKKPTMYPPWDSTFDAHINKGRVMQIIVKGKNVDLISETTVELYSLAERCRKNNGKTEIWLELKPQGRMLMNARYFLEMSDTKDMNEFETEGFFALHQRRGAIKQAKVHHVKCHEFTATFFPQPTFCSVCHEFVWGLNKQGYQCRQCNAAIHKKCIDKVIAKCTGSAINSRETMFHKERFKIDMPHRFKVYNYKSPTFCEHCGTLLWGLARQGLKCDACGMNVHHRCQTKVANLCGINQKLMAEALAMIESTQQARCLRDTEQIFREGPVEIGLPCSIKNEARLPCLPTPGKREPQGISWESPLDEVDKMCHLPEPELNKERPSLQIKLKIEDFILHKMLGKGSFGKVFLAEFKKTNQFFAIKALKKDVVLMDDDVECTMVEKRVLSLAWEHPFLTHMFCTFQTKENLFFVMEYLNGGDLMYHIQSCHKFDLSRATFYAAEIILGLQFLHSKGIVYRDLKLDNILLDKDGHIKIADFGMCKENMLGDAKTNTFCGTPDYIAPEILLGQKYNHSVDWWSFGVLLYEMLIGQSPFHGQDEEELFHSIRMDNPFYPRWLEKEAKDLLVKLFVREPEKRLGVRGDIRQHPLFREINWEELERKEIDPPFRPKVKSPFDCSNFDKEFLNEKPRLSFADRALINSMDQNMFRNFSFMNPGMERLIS
Chain of MKNK1 (human), Q9BUB5 [T385D; 165-205 del] (Q9BUB5 whole entry, looked up, stated change not applied): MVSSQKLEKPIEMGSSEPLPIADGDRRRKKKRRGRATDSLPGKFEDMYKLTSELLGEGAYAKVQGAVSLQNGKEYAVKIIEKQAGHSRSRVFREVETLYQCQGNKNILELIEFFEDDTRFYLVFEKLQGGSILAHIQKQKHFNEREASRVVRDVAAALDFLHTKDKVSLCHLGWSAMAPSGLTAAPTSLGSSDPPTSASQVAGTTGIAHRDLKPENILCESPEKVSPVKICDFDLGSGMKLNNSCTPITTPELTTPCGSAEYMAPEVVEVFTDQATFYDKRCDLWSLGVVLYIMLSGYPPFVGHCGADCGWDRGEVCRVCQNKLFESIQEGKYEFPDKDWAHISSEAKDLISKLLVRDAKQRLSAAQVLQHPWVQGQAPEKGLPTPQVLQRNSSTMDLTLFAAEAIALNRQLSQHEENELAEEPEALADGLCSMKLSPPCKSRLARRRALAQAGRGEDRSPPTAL

`CCCCc1c(-c2ccc(O)cc2)[nH]c2nccnc12`: the residual activity in assay [1] amounted to 77.4%; in assay [2], 100%; in assay [3], 94.5%; in assay [4] it was 118%.
On the same counts, the results for `O=c1c2ccccc2[nH]c(=S)n1CCN1CCC(=C(c2ccc(F)cc2)c2ccc(F)cc2)CC1` are 107%, 102%, 101% and 92.2%.
For `N/C(=N\N=C/c1ccc(-c2cccc([N+](=O)[O-])c2)o1)N[N+](=O)[O-]`, the residual activity amounted to 86.3% in assay [1], 111% in assay [2], 97.4% in assay [3] and 94.6% in assay [4].
`NC(=O)c1ccc(N(C(N)=O)c2c(F)cccc2F)nc1-c1ccc(F)cc1F`: the residual activity in assay [1] came out at 97.5%; in assay [2], 96.5%; in assay [3], 91.4%; in assay [4] it was 85.1%.
Consider `O=c1[nH]c2ccccc2n1C1CCN(Cc2ccc(-c3nc4cc5[nH]cnc5cc4nc3-c3ccccc3)cc2)CC1`, for which the residual activity in assay [1] came to 98.7%; in assay [2] it was 101%; in assay [3] it was 104%; in assay [4], 96.4%.
In the same order, the values of `O=c1cc(N2CCOCC2)oc2c1ccc1ccccc12` are 112%, 94.1%, 95% and 90.6%.
As to `Nc1ncnc2c1cnn2-c1ccccc1`, the residual activity was found to be 108% in assay [1], 90.8% in assay [2], 81.4% in assay [3] and 102% in assay [4].
Regarding `O=C1Nc2ccc(Cl)cc2/C1=C/c1cc(Cl)c(O)c(Cl)c1`, the residual activity was determined as 87.3% in assay [1], 96.4% in assay [2], 103% in assay [3] and 105% in assay [4].
On to `COc1ccc(CNC(=O)Nc2ncc([N+](=O)[O-])s2)cc1`, for which the residual activity in assay [1] was determined as 91.2%; in assay [2] it was 85.9%; in assay [3] it was 98.4%; in assay [4], 96.9%.
Take `O=C(NC(NC(=S)Nc1ccc(F)c([N+](=O)[O-])c1)C(Cl)(Cl)Cl)C(c1ccccc1)c1ccccc1` (stereo unspecified): the residual activity in assay [1] was 102%; in assay [2], 107%; in assay [3] it was 100%; in assay [4] it was 107%.
For the compound `Nc1ccc2ncnc(NCCc3ccc(Oc4ccccc4)cc3)c2c1`, the residual activity was 101% in assay [1], 96.6% in assay [2], 106% in assay [3] and 108% in assay [4].
On to `CNc1cc2c(Nc3cccc(Br)c3)ncnc2cn1`, for which the residual activity in assay [1] turned out to be 97%; in assay [2] it was 94.5%; in assay [3], 55.2%; in assay [4], 110%.
As to `O=C(Nc1cccc(Nc2nccc(Nc3cccc(C(F)(F)F)c3)n2)c1)C1CC1`, the residual activity in assay [1] amounted to 95.9%; in assay [2], 98.3%; in assay [3] it was 91%; in assay [4], 107%.
In the case of `CCc1nc(-c2ccc(OC)cc2)[nH]c1-c1ccncc1`, the residual activity turned out to be 123% in assay [1], 110% in assay [2], 115% in assay [3] and 121% in assay [4].
On the same counts, the results for `O=c1cc(N2CCNCC2)oc2c(-c3ccccc3)cccc12` are 104%, 96.2%, 107% and 117%.
In the same order, the values of `O=C1NC(=O)c2cc(Nc3ccc(F)cc3)c(Nc3ccc(F)cc3)cc21` are 102%, 110%, 103% and 98.7%.
`CCN(CC)C(=O)c1ccc(Nc2nc(OCC3CCCCC3)c3nc[nH]c3n2)cc1`: the residual activity in assay [1] worked out at 25.9%; in assay [2], 93.1%; in assay [3], 97.5%; in assay [4] it was 97.9%.
With `Nc1nc(Nc2ccc(S(N)(=O)=O)cc2)nn1C(=O)c1c(F)cccc1F`, the residual activity stood at 38% in assay [1], 90.5% in assay [2], 90.9% in assay [3] and 114% in assay [4].
In the case of `CCN1/C(=C/C(C)=O)Sc2ccc(OC)cc21`, the residual activity in assay [1] came to 99.7%; in assay [2], 86.7%; in assay [3] it was 119%; in assay [4], 95.9%.
In the case of `CC(=O)O/N=C1\C(=C2\C(=O)Nc3cc(Br)ccc32)Nc2ccccc21`, the residual activity in assay [1] is 93.7%; in assay [2] it was 87.2%; in assay [3], 95.2%; in assay [4] it was 72%.
In the case of `COc1cc2nccc(Oc3ccc(NC(=S)NC(=O)c4ccccc4C)cc3)c2cc1OC`, the residual activity in assay [1] is 73.8%; in assay [2], 94.9%; in assay [3], 93.2%; in assay [4], 107%.
Turning to `Cc1ccc(S(=O)(=O)/C=C/C#N)cc1`, the residual activity was found to be 96.5% in assay [1], 98.4% in assay [2], 99.4% in assay [3] and 100% in assay [4].
As to `COc1cc2c(Nc3ccc(Br)cc3F)ncnc2cc1OCC1CCN(C)CC1`, the residual activity was found to be 16.1% in assay [1], 96.2% in assay [2], 49.3% in assay [3] and 100% in assay [4].
Consider `COc1ccc2c(c[n+](C)c3c4cc5c(cc4ccc23)OCO5)c1OC`, for which the residual activity in assay [1] was 97.6%; in assay [2], 95%; in assay [3], 102%; in assay [4] it was 99.9%.
As for `O=S(=O)(NCCNC/C=C/c1ccc(Br)cc1)c1cccc2cnccc12`, the residual activity in assay [1] amounted to 108%; in assay [2] it was 81.3%; in assay [3], 93.4%; in assay [4], 104%.
As to `CCCC(=O)Oc1ccc2[nH]c(C(=O)c3cc4ccccc4[nH]3)cc2c1`, the residual activity in assay [1] was determined as 98.2%; in assay [2], 97.3%; in assay [3] it was 101%; in assay [4] it was 111%.
In the same order, the values of `O=c1cc(-c2cccc3c2Sc2ccccc2S3)oc(N2CCOCC2)c1` are 104%, 107%, 99.5% and 112%.
On to `CC#CC(=O)Nc1cc2c(Nc3ccc(F)c(Cl)c3)ncnc2cn1`, for which the residual activity in assay [1] came to 92.8%; in assay [2] it was 100%; in assay [3], 89.5%; in assay [4], 89.3%.
For `O=C(c1ccccc1)c1ccc(N2CCOCC2)cc1O`, the residual activity in assay [1] was determined as 112%; in assay [2], 93.5%; in assay [3], 103%; in assay [4] it was 92.5%.
For `O=C1Nc2ccccc2/C1=C\c1c(Cl)[nH]c2ccccc12`, the residual activity in assay [1] amounted to 108%; in assay [2], 93.4%; in assay [3] it was 105%; in assay [4], 91.7%.
Regarding `Cc1cc(Nc2nc(-c3ccccc3)nc3ccccc23)n[nH]1`, the residual activity was 44.9% in assay [1], 93.2% in assay [2], 93.5% in assay [3] and 82.3% in assay [4].
On to `COc1ccc(-c2cnc3c(-c4ccsc4)cnn3c2)cc1`, for which the residual activity in assay [1] is 94.1%; in assay [2], 95.9%; in assay [3], 87.1%; in assay [4] it was 98.7%.
Turning to `CC[C@@H](CO)Nc1nc(NCc2ccccc2)c2ncn(C(C)C)c2n1`, the residual activity is 94% in assay [1], 98.2% in assay [2], 96.4% in assay [3] and 90% in assay [4].
`COc1ccc(COc2ccc(Cc3cnc(N)nc3N)cc2OC)cc1`: the residual activity in assay [1] was determined as 105%; in assay [2], 87.4%; in assay [3] it was 113%; in assay [4], 98%.

The record behind these values is the kinase profiling compilation of Christmann-Franck et al. (2016).
